Measured values: patent US9340590B2 (priority 2011, dated 2016)
Like-named read-outs stand apart in the source and are kept apart here. Positions of bridges follow the written chain, without caps; N, C: chain ends. Non-standard residues stand in square brackets, D forms with d. Residues, ends and D or L forms follow the SMILES beside them. Dab = NCC[C@H](N)C(=O)O

Columns and labels:
Test in all cases: cell-based
hNav1.7 = hNav1.7 (Homo sapiens, UniProt Q15858); type: cell-based
hNav1.5 = hNav1.5 (Homo sapiens, UniProt Q14524); settings: IonWorks Quattro, read-out: IWQ Use Nav1.5
hNav1.3 = hNav1.3 (Homo sapiens, UniProt Q9NY46); settings: IonWorks Quattro, read-out: IWQ Use Nav1.3
[1] = clamped to −110 mV, depolarized to −10 mV, 5 min after compound, n=2
[2] = IonWorks Quattro, use-dependent block, hNav1.7, read-out: IWQ Use Nav1.7

hNav1.5, sequence (Q14524 whole entry, looked up): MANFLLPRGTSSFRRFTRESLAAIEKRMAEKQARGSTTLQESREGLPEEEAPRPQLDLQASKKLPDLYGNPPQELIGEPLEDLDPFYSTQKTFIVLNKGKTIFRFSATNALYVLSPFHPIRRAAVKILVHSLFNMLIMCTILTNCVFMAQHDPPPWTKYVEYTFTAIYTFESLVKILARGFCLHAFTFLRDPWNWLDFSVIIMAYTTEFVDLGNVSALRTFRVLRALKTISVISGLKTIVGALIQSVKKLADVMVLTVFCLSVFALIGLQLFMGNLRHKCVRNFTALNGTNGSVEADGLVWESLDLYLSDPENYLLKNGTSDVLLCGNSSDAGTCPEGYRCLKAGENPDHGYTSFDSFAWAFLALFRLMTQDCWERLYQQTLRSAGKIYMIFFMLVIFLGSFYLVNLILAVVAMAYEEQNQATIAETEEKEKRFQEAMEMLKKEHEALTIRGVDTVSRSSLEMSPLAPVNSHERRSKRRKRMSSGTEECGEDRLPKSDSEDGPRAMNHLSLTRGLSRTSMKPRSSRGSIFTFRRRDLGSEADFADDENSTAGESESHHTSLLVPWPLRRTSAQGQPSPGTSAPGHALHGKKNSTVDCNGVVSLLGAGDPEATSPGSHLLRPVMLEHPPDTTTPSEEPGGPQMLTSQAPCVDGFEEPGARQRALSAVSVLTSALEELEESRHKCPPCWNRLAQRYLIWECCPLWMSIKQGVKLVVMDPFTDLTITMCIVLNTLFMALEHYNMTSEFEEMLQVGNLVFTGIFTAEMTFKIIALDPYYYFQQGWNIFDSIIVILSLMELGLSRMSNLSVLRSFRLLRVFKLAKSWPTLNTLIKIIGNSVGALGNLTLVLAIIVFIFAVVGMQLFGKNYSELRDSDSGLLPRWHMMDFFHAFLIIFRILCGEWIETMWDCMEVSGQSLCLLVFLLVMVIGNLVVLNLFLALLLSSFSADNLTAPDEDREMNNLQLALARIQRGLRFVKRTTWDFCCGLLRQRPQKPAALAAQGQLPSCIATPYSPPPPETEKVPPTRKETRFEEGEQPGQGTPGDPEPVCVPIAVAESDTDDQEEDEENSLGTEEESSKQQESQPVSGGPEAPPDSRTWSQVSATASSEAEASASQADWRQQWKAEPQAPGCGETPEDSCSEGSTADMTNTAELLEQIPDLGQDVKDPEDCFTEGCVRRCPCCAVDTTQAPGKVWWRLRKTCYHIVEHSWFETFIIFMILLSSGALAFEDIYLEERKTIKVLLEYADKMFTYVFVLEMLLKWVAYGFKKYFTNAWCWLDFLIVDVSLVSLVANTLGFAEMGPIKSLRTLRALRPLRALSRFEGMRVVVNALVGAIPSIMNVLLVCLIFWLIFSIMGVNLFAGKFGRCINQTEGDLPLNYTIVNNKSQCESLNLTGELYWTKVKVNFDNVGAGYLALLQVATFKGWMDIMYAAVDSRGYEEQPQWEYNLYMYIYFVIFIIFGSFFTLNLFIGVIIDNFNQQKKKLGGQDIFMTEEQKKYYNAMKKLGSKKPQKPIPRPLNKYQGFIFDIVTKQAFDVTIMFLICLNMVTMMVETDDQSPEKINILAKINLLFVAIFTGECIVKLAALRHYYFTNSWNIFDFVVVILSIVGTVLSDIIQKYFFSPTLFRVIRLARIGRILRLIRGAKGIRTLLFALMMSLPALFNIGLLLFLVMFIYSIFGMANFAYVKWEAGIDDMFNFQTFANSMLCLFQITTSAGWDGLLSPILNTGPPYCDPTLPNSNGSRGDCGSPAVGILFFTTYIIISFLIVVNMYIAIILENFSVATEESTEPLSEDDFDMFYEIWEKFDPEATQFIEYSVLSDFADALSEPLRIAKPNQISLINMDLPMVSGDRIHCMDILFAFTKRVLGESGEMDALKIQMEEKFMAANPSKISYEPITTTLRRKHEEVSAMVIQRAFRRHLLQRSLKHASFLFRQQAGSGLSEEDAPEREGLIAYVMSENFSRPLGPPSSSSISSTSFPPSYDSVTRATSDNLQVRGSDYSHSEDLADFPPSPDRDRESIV
hNav1.3, sequence (Q9NY46 whole entry, looked up): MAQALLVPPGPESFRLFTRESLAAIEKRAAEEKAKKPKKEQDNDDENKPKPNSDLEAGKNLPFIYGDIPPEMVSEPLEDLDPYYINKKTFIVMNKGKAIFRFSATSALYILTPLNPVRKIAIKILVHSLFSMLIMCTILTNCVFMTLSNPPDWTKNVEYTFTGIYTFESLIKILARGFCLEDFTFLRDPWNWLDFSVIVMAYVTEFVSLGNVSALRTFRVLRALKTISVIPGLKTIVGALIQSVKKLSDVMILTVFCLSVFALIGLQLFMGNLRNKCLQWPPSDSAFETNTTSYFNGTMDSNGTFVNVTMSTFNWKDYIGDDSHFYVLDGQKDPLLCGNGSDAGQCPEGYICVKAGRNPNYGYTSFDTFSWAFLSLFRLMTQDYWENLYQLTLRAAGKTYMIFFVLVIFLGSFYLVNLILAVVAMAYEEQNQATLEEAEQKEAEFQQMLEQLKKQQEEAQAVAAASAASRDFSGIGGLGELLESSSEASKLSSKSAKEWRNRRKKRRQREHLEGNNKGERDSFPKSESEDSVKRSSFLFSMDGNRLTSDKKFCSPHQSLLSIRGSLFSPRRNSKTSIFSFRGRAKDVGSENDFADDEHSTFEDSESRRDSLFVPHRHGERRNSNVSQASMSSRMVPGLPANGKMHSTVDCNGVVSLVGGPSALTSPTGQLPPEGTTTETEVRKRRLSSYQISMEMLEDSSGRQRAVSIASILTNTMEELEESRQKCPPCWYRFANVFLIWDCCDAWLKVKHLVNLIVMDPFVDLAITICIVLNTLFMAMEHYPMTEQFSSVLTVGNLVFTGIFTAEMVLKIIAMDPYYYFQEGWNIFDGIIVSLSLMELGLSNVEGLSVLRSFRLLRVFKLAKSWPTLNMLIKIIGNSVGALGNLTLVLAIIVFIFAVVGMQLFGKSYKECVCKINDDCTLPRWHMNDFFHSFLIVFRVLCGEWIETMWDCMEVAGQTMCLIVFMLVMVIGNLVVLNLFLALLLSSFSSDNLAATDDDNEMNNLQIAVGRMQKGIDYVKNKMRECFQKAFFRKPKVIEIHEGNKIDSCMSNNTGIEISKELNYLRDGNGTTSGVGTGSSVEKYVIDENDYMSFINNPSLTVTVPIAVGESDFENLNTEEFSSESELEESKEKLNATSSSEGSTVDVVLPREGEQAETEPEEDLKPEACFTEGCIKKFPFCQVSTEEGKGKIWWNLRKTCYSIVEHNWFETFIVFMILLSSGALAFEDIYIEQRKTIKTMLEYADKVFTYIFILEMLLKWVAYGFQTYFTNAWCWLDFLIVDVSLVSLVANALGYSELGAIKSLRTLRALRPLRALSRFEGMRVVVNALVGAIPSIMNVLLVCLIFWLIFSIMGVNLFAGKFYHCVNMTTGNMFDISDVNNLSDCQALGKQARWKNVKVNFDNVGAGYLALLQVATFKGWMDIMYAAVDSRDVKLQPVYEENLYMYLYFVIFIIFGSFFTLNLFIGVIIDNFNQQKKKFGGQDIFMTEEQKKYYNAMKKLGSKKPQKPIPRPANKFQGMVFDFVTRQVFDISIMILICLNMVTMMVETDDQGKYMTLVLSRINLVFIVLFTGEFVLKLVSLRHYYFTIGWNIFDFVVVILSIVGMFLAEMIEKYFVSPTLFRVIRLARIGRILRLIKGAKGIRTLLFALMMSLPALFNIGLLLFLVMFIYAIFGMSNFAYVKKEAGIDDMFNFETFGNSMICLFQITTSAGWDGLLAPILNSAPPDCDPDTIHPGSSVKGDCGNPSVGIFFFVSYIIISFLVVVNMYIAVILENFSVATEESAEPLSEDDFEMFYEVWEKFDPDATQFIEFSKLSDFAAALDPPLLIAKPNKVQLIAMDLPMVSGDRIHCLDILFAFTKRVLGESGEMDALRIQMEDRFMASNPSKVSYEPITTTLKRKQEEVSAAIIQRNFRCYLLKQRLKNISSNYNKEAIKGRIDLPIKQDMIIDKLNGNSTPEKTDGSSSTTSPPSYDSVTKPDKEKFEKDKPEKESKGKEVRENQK

Compound: CSCC[C@@H]1NC(=O)[C@H](Cc2ccccc2)NC(=O)CNC(=O)[C@H](CC(C)C)NC(=O)[C@@H](NC(=O)[C@@H](N)CC(=O)O)CSSC[C@@H]2NC(=O)[C@@H]3CSSC[C@@H](C(=O)N[C@@H](CCCCN)C(=O)N[C@@H](Cc4ccc(O)cc4)C(=O)N[C@H](C(=O)N[C@@H](Cc4ccccc4)C(N)=O)C(C)C)NC(=O)[C@H](Cc4c[nH]c5ccccc45)NC(=O)[C@H](CCCCN)NC(=O)[C@H](Cc4c[nH]cn4)NC(=O)[C@H]([C@@H](C)O)NC(=O)[C@H](CCCNC(=N)N)NC(=O)[C@H](CO)NC(=O)[C@H](CSSC[C@H](NC(=O)[C@H](CCCCN)NC(=O)[C@H](CCCNC(=N)N)NC1=O)C(=O)N[C@@H](Cc1c[nH]c4ccccc14)C(=O)N1CCC[C@H]1C(=O)N[C@@H](CC(=O)O)C(=O)N[C@@H](CC(N)=O)C(=O)N[C@@H](CC(=O)O)C(=O)N[C@@H](CCCCN)C(=O)N3)NC(=O)[C@H](C(C)C)NC(=O)[C@H](CC(C)C)NC(=O)[C@H](CC(N)=O)NC(=O)[C@@H]1CCCN1C(=O)[C@H](CCCNC(=N)N)NC2=O [compound 83] (H-DCLGFMRKCWPDNDKCCRPNLVCSRTHKWCKYVF-NH2; disulfide 2-17, 9-23, 16-30)
- IC50 (hNav1.7; IonWorks Quattro, Use, read-out: IWQ Use Nav1.7): 100 nM
- IC50 (hNav1.5; Use): 8020 nM
- IC50 (hNav1.3; Use): 190 nM

Compound: CC[C@H](C)[C@@H]1NC(=O)[C@@H]2CSSC[C@@H]3NC(=O)[C@H](C(C)C)NC(=O)[C@H](CC(C)C)NC(=O)[C@H](CC(N)=O)NC(=O)[C@@H]4CCCN4C(=O)[C@H](CCCNC(=N)N)NC(=O)[C@H](CSSC[C@H](NC(=O)[C@@H](N)CC(=O)O)C(=O)N[C@@H](CC(C)C)C(=O)NCC(=O)N[C@@H]([C@@H](C)O)C(=O)N[C@@H](CCSC)C(=O)N[C@@H](CCCNC(=N)N)C(=O)N[C@@H](CCCCN)C(=O)N2)NC(=O)[C@H](CSSC[C@@H](C(=O)N[C@@H](CCCCN)C(=O)N[C@@H](Cc2ccc(O)cc2)C(=O)N[C@H](C(=O)N[C@@H](Cc2ccccc2)C(N)=O)C(C)C)NC(=O)[C@H](Cc2c[nH]c4ccccc24)NC(=O)[C@H](CCCCN)NC(=O)[C@H](Cc2c[nH]cn2)NC(=O)[C@H]([C@@H](C)O)NC(=O)[C@H](CCCNC(=N)N)NC(=O)[C@H](CO)NC3=O)NC(=O)[C@H](CCCCN)NC(=O)[C@H](CC(=O)O)NC(=O)[C@H](CC(N)=O)NC(=O)[C@H](CC(=O)O)NC(=O)[C@@H]2CCCN2C1=O [SEQ ID NO: 270] (H-DCLGTMRKCIPDNDKCCRPNLVCSRTHKWCKYVF-NH2; disulfide 2-17, 9-23, 16-30)
- IC50 (hNav1.7; IonWorks Quattro, clamped to −110 mV, depolarized to −10 mV, 5 min after compound, n=2, read-out: IWQ Use Nav1.7): 1220 nM
- IC50 (hNav1.5; [1]): 15200 nM
- IC50 (hNav1.3; [1]): 2190 nM

Compound: CC[C@H](C)[C@@H]1NC(=O)[C@@H]2CSSC[C@@H]3NC(=O)[C@H](C(C)C)NC(=O)[C@H](CC(C)C)NC(=O)[C@H](CC(N)=O)NC(=O)[C@@H]4CCCN4C(=O)[C@H](CCCNC(=N)N)NC(=O)[C@H](CSSC[C@H](NC(=O)[C@@H](N)CC(=O)O)C(=O)N[C@@H](CC(C)C)C(=O)NCC(=O)N[C@@H](Cc4ccccc4)C(=O)N[C@@H](CCSC)C(=O)N[C@@H](CCCNC(=N)N)C(=O)N[C@@H](CCCCN)C(=O)N2)NC(=O)[C@H](CSSC[C@@H](C(=O)N[C@@H](CCCCN)C(=O)N[C@@H](Cc2ccc(O)cc2)C(=O)N[C@H](C(=O)N[C@@H](Cc2ccccc2)C(N)=O)C(C)C)NC(=O)[C@H](Cc2c[nH]c4ccccc24)NC(=O)[C@H](CCCCN)NC(=O)[C@H](Cc2c[nH]cn2)NC(=O)[C@H]([C@@H](C)O)NC(=O)[C@H](CCCNC(=N)N)NC(=O)[C@H](CO)NC3=O)NC(=O)[C@H](CCC(=O)O)NC(=O)[C@H](CC(=O)O)NC(=O)[C@H](CC(N)=O)NC(=O)[C@H](CC(=O)O)NC(=O)[C@@H]2CCCN2C1=O [compound 28] (H-DCLGFMRKCIPDNDECCRPNLVCSRTHKWCKYVF-NH2; disulfide 2-17, 9-23, 16-30)
- IC50 (hNav1.7): 590 nM
- IC50 (hNav1.5; Use): 12100 nM
- IC50 (hNav1.3; Use): 490 nM

Compound: CC[C@H](C)[C@@H]1NC(=O)[C@@H]2CSSC[C@@H]3NC(=O)[C@H](C(C)C)NC(=O)[C@H](CC(C)C)NC(=O)[C@H](CC(N)=O)NC(=O)[C@@H]4CCCN4C(=O)[C@H](CCCNC(=N)N)NC(=O)[C@H](CSSC[C@H](NC(=O)[C@@H](N)CC(=O)O)C(=O)N[C@@H](CC(C)C)C(=O)NCC(=O)N[C@@H](Cc4ccccc4)C(=O)N[C@@H](CCSC)C(=O)N[C@@H](CCCNC(=N)N)C(=O)N[C@@H](CCCCN)C(=O)N2)NC(=O)[C@H](CSSC[C@@H](C(=O)N[C@@H](CCCCN)C(=O)N[C@@H](CCC(N)=O)C(=O)N[C@H](C(=O)N[C@@H](Cc2ccccc2)C(N)=O)C(C)C)NC(=O)[C@H](Cc2c[nH]c4ccccc24)NC(=O)[C@H](CCCCN)NC(=O)[C@H](Cc2c[nH]cn2)NC(=O)[C@H]([C@@H](C)O)NC(=O)[C@H](CCCNC(=N)N)NC(=O)[C@H](CO)NC3=O)NC(=O)[C@H](CCCCN)NC(=O)[C@H](CC(=O)O)NC(=O)[C@H](CC(N)=O)NC(=O)[C@H](CC(=O)O)NC(=O)[C@@H]2CCCN2C1=O [compound 366] (H-DCLGFMRKCIPDNDKCCRPNLVCSRTHKWCKQVF-NH2; disulfide 2-17, 9-23, 16-30)
- IC50 (hNav1.7; Table 25, IonWorks Quattro, use, […], read-out: IWQ Use Nav1.7): 4870 nM
- IC50 (hNav1.5; Table 25, use, […]): 21000 nM
- IC50 (hNav1.3; Table 25, use, […]): 2390 nM

Compound: CC[C@H](C)[C@@H]1NC(=O)[C@@H]2CSSC[C@@H]3NC(=O)[C@H](C(C)C)NC(=O)[C@H](CC(C)C)NC(=O)[C@H](CC(N)=O)NC(=O)[C@@H]4CCCN4C(=O)[C@H](CCCNC(=N)N)NC(=O)[C@H](CSSC[C@H](NC(=O)[C@@H](N)CC(=O)O)C(=O)N[C@@H](CC(C)C)C(=O)NCC(=O)N[C@@H](Cc4ccccc4)C(=O)N[C@@H](CCSC)C(=O)N[C@@H](CCCNC(=N)N)C(=O)N[C@@H](CCCCN)C(=O)N2)NC(=O)[C@H](CSSC[C@@H](C(=O)N[C@@H](CCCCN)C(=O)N[C@@H](Cc2ccc(O)cc2)C(=O)N[C@@H](Cc2c[nH]c4ccccc24)C(=O)N[C@@H](Cc2ccccc2)C(N)=O)NC(=O)[C@H](Cc2c[nH]c4ccccc24)NC(=O)[C@H](CCCCN)NC(=O)[C@H](Cc2c[nH]cn2)NC(=O)[C@H]([C@@H](C)O)NC(=O)[C@H](CCCNC(=N)N)NC(=O)[C@H](CO)NC3=O)NC(=O)[C@H](CCCCN)NC(=O)[C@H](CC(=O)O)NC(=O)[C@H](CC(N)=O)NC(=O)[C@H](CC(=O)O)NC(=O)[C@@H]2CCCN2C1=O [compound 180] (H-DCLGFMRKCIPDNDKCCRPNLVCSRTHKWCKYWF-NH2; disulfide 2-17, 9-23, 16-30)
- IC50 (hNav1.7; Table 26, IonWorks Quattro, use, […], read-out: IWQ Use Nav1.7): 50 nM
- IC50 (hNav1.5; Table 26, use, […]): 9060 nM
- IC50 (hNav1.3; Table 26, use, […]): 9 nM

Compound: CC[C@H](C)[C@@H]1NC(=O)[C@@H]2CSSC[C@@H]3NC(=O)[C@H](C(C)C)NC(=O)[C@H](CC(C)C)NC(=O)[C@H](CC(N)=O)NC(=O)[C@@H]4CCCN4C(=O)[C@H](CCCNC(=N)N)NC(=O)[C@H](CSSC[C@H](NC(=O)[C@@H](N)CC(=O)O)C(=O)N[C@@H](CC(C)C)C(=O)NCC(=O)N[C@@H](C)C(=O)N[C@@H](CC(C)C)C(=O)N[C@@H](CCCNC(=N)N)C(=O)N[C@@H](CCCCN)C(=O)N2)NC(=O)[C@H](CSSC[C@@H](C(=O)N[C@@H](CCCCN)C(=O)N[C@@H](Cc2ccc(O)cc2)C(=O)N[C@H](C(=O)N[C@@H](Cc2ccccc2)C(N)=O)C(C)C)NC(=O)[C@H](Cc2c[nH]c4ccccc24)NC(=O)[C@H](CCCCN)NC(=O)[C@H](Cc2c[nH]cn2)NC(=O)[C@H]([C@@H](C)O)NC(=O)[C@H](C)NC(=O)[C@H](CO)NC3=O)NC(=O)[C@H](CCCCN)NC(=O)[C@H](CC(=O)O)NC(=O)[C@H](CC(N)=O)NC(=O)[C@H](CC(=O)O)NC(=O)[C@@H]2CCCN2C1=O [compound 731]
- IC50 (hNav1.7; [2]): 600 nM
- IC50 (hNav1.5; use-dependent block, hNav1.5): 38000 nM
- IC50 (hNav1.3; use-dependent block, hNav1.3): 2800 nM

Compound: CC[C@H](C)[C@@H]1NC(=O)[C@@H]2CSSC[C@@H]3NC(=O)[C@H](C(C)C)NC(=O)[C@H](CC(C)C)NC(=O)[C@H](CC(N)=O)NC(=O)[C@@H]4CCCN4C(=O)[C@H](CCCNC(=N)N)NC(=O)[C@H](CSSC[C@H](NC(=O)[C@@H](N)CC(=O)O)C(=O)N[C@@H](CC(C)C)C(=O)NCC(=O)N[C@@H](C)C(=O)N[C@@H](CCSC)C(=O)N[C@@H](CCCNC(=N)N)C(=O)N[C@@H](CCCCN)C(=O)N2)NC(=O)[C@H](CSSC[C@@H](C(=O)N[C@@H](CCCCN)C(=O)N[C@@H](Cc2ccc(O)cc2)C(=O)N[C@H](C(=O)N[C@@H](Cc2ccccc2)C(N)=O)C(C)C)NC(=O)[C@H](Cc2c[nH]c4ccccc24)NC(=O)[C@H](CCN)NC(=O)[C@H](Cc2c[nH]cn2)NC(=O)[C@H]([C@@H](C)O)NC(=O)[C@H](CCCNC(=N)N)NC(=O)[C@H](CO)NC3=O)NC(=O)[C@H](CCCCN)NC(=O)[C@H](CC(=O)O)NC(=O)[C@H](CC(N)=O)NC(=O)[C@H](CC(=O)O)NC(=O)[C@@H]2CCCN2C1=O [compound 762] (H-DCLGAMRKCIPDNDKCCRPNLVCSRTH[Dab]WCKYVF-NH2; disulfide 2-17, 9-23, 16-30)
- IC50 (hNav1.7; [2]): 320 nM
- IC50 (hNav1.5; use-dependent block, hNav1.5): 23300 nM
- IC50 (hNav1.3; use-dependent block, hNav1.3): 860 nM
